Entries after “also recorded” stand apart in the source; their conditions may differ.
Key:
RN22 cells = assay: RN22 cell survival under CuSO4 stress (MTT); assay type: cell-based, rat; conditions: CuSO4 150 μM, 24 h, peptoids 1 ng/ml-10 μg/ml; compared with NGF 100 ng/ml
Protocol: The library was also tested to assess their capacity to promote cell survival of myelin producing cells. To delineate p75 signalling independent of TrkA, we used a rat schwannoma cell line (RN22) expressing p75, but not TrkA, (Gentry et al., 2000).
The rat schawnnoma cell line RN22 was cultured in 5% CO2 at 37° C. in Dulbecco's modified Eagle's medium (DMEM) with 10% fetal bovine serum (FBS) and penicillin/streptomycin.
RN22 cells were plated at 20,000 cells/well on a 24-well plate in DMEM alone and after allowing the cells to adhere for 3 days, cupper sulphate (CuSO4) (150 μM) was added with or without NGF (100 ng/ml) or the peptoids N35-4-8C, N6-4-17C and N35-4-17C at different concentrations (1 ng/ml-10 μg/ml) to generate stress and cell death. After 24 h cell viability was studied by determining the amount of yellow MTT (Sigma) that was reduced to insoluble purple formazan. After removing the medium, the water-insoluble formazan was solubilised with DMSO (Sigma), and the dissolved material was measured spectrophotometrically at a wavelength of 570 nm, subtracting the background at 650 nm (Frade, 2005).

C57BL/6 EAE mice = assay: Experimental autoimmune encephalomyelitis (EAE) clinical score; assay type: in vivo; conditions: daily intraperitoneal, day 0 to day 25
Protocol: Trials were approved by the Parc Cientific de Barcelona Committee on Animal Care. Female C57BL/6 mice from Harlan (8-12 weeks old) were immunized subcutaneously in both hind pads with 300 μg of myelin oligodendrocyte glycoprotein (MOG) peptide 35-55 (Spikem, Firenze) emulsified with 50 μg of Mycobacterium tuberculosis (H37Ra strain; Difco, Detroit, Mich.) in incomplete Freund's adjuvant (IFA) as previously described (Adams et al. 2007). Mice were intraperitoneally injected with Pertussis toxin (Sigma)(500 ng) at the time of immunization and 2 days later. Animals were weighted and inspected for clinical signs of disease on a daily basis by a blinded observer. Disease severity of EAE was assessed according to the following scale: 0=normal; 0.5=mild limp tail; 1=limp tail; 2=mild parapesis of the hind limbs, unsteady gait; 3=moderate parapesis, voluntary movements still possible; 4=paraplegia or tetraparesis; 5=moribund state. Data shown for the clinical studies are representative of two independent experiments performed with the indicated number of animals (Moreno et al., 2006).
The agonist molecules selected for the animal studies, N35-4-8C, N6-4-17C and N35-4-17C, were prepared in water with 5% DMSO. Animals were treated with the agonist molecule (25, 50 and 100 mg/kg) or placebo (water+5% DMSO) through daily intraperitoneal injection starting after immunization. At the end of the study, mice were anesthetized and perfused intracardially with 4% of paraformaldehyde in 0.1M phosphate buffer (pH 7.6). Brains, spinal cords and spleens were dissected and either fixed or frozen until use. Serum was obtained from all animals included in the study, and transaminases levels were measured.
In order to evaluate the effects of the NGF-like peptoids “in vivo”, we studied the effect of the NGF-mimetic peptoids in the animal model of MS. C57BL/6 mice immunized with MOG35-55 peptide were treated daily with N35-4-8C, N6-4-17C and N35-4-17C intraperitoneally from day 0 to day 25 at a different concentrations of the compound. N35-4-8C was tested at 3 different concentrations selected in base to previous experiments using agonist molecules in animal models: 25 mg/kg, 50 mg/kg and 100 mg/kg. […] N35-4-17C was also tested at the same concentrations. […] Moreover, the treatment had higher clinical scores with a clear worsening in the progression of the disease (FIG. 4C).

[1] = system: splenocytes isolated from naïve C57BL/6 mice; assay: Splenocyte proliferation assay (MOG stimulated); assay type: cell-based; conditions: MOG 10 μg/ml, splenocytes cultured 2 hours with compound before MOG, p<0.05
Protocol: FIG. 6 depicts effects of N35-4-8C on the peripheral immune response during EAE. […] Splenocytes were cultured for 2 hours with N35-4-8C before MOG addition. Data are means±standard error. *p<0.05 with respect to cells treated with MOG only. FIG. 6B: Gene expression profile of cytokines and inducible nitric oxide synthase (iNOS) assayed by quantitative reverse transcriptase-polymerase chain reaction (RT-PCR) in the spleen of placebo and treated animals at the end of the experiment. Data are expressed as fold change in gene expression levels in the treated groups compared with untreated controls. *p<0.05. IFN=interferon; IL=interleukin; TNF=tumor necrosis factor.
Splenocytes from naïve, non immunized C57BL/6 mice were obtained for in vitro assessment of the effect of N35-4-8C in cell proliferation. Splenocyte proliferation assay was performed as described previously (Martinez-Forero et al., 2008).

[2] = system: TNFα, IL2, iNOS gene expression; assay: Cytokine and iNOS gene expression in spleen of EAE mice (quantitative RT-PCR); assay type: in vivo; conditions: end of the experiment, treated vs placebo
Protocol: Brains and spinal cords from mice obtained at the time of death were homogenized in RNA lysis buffer. Total RNA was extracted using the RNeasy Mini Kit (Qiagen, Chatwworth, Calif.) isolation system, including DNase treatment using the RNase-Free DNase Set (Quiagen). Total RNA (35 μg) was reverse transcribed using the Reverse Transcription System (High Capacity cDNA Archive Kit; Applied Biosystems, Foster City, Calif.). The real time reaction was conducted at 25° C. for 10 minutes, followed by 37° C. for 2 hours, and finally stored at 4° C. Primers and target-specific fluorescence-labeled TaqMan probes were purchased from Applied Biosystems (TaqMan Gene Expression assays). We used the TaqMan Universal Master Mix (Applied biosystems). Amplification of complementary DNA was performed on a DNA Engine Opticon 2 Real-Time System (MJ Research, Watertown, Mass.) using 0.9 μM for each primer and 0.25 μM for the probe and 20 ng complementary DNA. The reaction conditions were an initial 2 minutes at 50° C., followed by 10 minutes at 95° C. and 40 cycles of 15 seconds at 95° C. and 1 minute at 60° C. Each sample was run in triplicate, and in each plate the target and the endogenous control were amplified in different wells. The expression of the gene tested was quantified relative to the level of the housekeeping gene 18rRNA (Palacios et al., 2008).
To assess which was the effect of this compound in the peripheral immune response, the proliferative response against the immunizing antigen (MOG) in splenocytes of naïve animals and the cytokine profile in spleen cells from placebo and treated animals were evaluated. […] Gene expression of interleukin2 (IL2), Interferon γ (IFNγ), tumor necrosis factor α (TNFα), inducible nitric oxide synthase (iNOS) and interleukin 10 (IL10) was investigated by quantitative reverse transcriptase PCR at the end of the experiment in splenocytes from placebo and treated animals.

## CC(C)CCN(CC(=O)N(CCCN1CCCC1=O)CC(N)=O)C(=O)CNCCc1ccccc1F [N35-4-8C, [N-(2-(2′-Fluorophenyl)ethyl)glycyl]-[N-(3-methylbutyl)glycyl]-N-[3-(2′-oxopyrrolidinyl)propyl]glycinamide]
RN22 cells
  survival of RN22 cells (cell viability, MTT): promote survival of RN22 cells
C57BL/6 EAE mice; 25 mg/kg
  EAE clinical severity: no effect in disease clinical severity
C57BL/6 EAE mice; 50 mg/kg
  EAE clinical severity: an effect but more moderate
C57BL/6 EAE mice; 100 mg/kg
  EAE clinical severity: almost a complete prevention of EAE; also recorded: prevents EAE
[1]
  MOG specific proliferative response of splenocytes: significantly lower; also recorded: inhibits the proliferation of splenocytes
[2]
  gene expression of IL2 in spleen: significant decrease
  gene expression of TNFα in spleen: significant decrease
  gene expression of iNOS in spleen: significant decrease

From patent US20120237552A1, “Peptoid Agonists of Nerve Growth Factor and Their Use as Medicaments” (priority 2009, published 2012)
